Reference: US8916607B2, “Use of piperphentonamine or salts thereof in manufacture of medicaments for treating brain diseases” (Guangzhou Municipal Zhongwei Biotechnology Limited Company, priority 2009, dated 2014)
Marks after values point to notes of the source that are not given here.

Columns and labels:
[1] = test system: cerebral hemorrhage in rats induced by collagenase; experiment: cerebral hemorrhage (ICH) model induced by collagenase: neurology score; format: in vivo, Wistar rats
Method: (§1) Animals are randomly divided into five groups: sham operation 24 h group; cerebral hemorrhage (Intracerebral Haemorrhage, ICH)+physiological saline group (model); ICH+piperphentonamine hydrochloride (JBTA, 2 mg/kg) group, called as high dose group (h); ICH+piperphentonamine hydrochloride (JBTA, 0.5 mg/kg) group, called as low dose group (1); ICH+nimodipine (Nim, 0.5 mg/kg) group. The last four groups are divided into 4 h, 8 h, 12 h, 24 h as four time subgroups respectively. Physiological saline solution, piperphentonamine hydrochloride and nimodipine are intravenously injected from rat tail before the ICH model is established for 30 minutes, once a day. Injecting slowly, the total amount of drug liquid is controlled in 1 ml/200 g body weight: physiological saline solution also being administered in 1 ml/200 g body weight. Each group has 7 Wistar rats.
The specific steps are as following: after the experimental rats are anesthetized by injecting chloral hydrate (350 mg/kg) in intraperitoneal, and being supinely immobilized in a stereotaxic instrument, and make the rat anterior fontanelle and posterior fontanelle in the same plane according to localization method reported by BAO Xinmin, etc. Being locally disinfected by iodine, incising in the midmost of scalp, scissoring the periosteum, exposing the anterior fontanelle, drilling a 1 mm diameter hole with thickness close to duramater in 3 mm left to the midline by number five needle. Inserting needle along the hole by the micro syringe fixed on a stereotaxic, the depth of needle insertion is 5.8 mm (i.e., the caudate nucleus position), slowly injecting collagenase VI 0.5 U. Injection time is 3 min, keeping for 5 min after injection, then pull the needle out, suturing the skin, and putting the rat into cage and feed. Inserting the needle and not injecting drugs in sham operation group, the remaining operations is the same as the above.
After animals wake up, scoring nerve function defect of each group immediately according to the grading classification standards of nerve defect reported by Bedersog (litter improved).
Choosing the animals with the score of 3 and more into the experiment, the animals are bred in different cages, eat and drink normally. Temperature is controlled in 20 to 25° C., score in 4 h, 8 h, 12 h, 24 h after establishment of the model.
(§2) Divide the animals randomly into five groups: sham operation (sham) 24 h group; ICH+normal saline group (model); ICH+piperphentonamine maleate (4 mg/kg) group, namely high dose group (h); ICH+piperphentonamine maleate (2 mg/kg) group, namely low dose group (1); ICH+nimodipine (0.5 mg/kg) group. The last four groups were divided into four time subgroup of 4 h, 8 h, 12 h and 24 h. Physiological solution, piperphentonamine maleate and nimodipine were injected intravenous from rat tail vein 30 minutes before the ICH model made, once a day. Inject slowly, the total amount of drug liquid was controlled in 1 ml/200 g body weight: normal saline was also administered in 1 ml/200 g body weight. Each group has seven Wistar rats.

[2] = test system: cerebral hemorrhage in rats induced by collagenase; experiment: ICH model induced by collagenase: brain water content (BWC); format: in vivo, Wistar rats
Method: as §1
Observing the influence of piperphentonamine hydrochloride on the brain water content of intracerebral hemorrhage in rats in 4 h, 8 h, 12 h, 24 h, the animals of the different groups is anesthetized by chloral hydrate at predetermined time point, and decollating and taking the brain rapidly, putting the brain tissue on a filter paper wetted by saline solution to prevent water evaporating. Removing the leptomeninges and blood, cutting and taking the front half portion of brain tissue centered by the hole for the insertion needle, weighing precisely (accurate to 0.1 mg). It is controlled in 5 min to take the brain to finish weigh. Then putting in 95° C. constant temperature oven for 24 h, weighing the dry weight. The brain water content is calculated according to Blliot formula: BWC=(wet weight−dry weight)/wet weight×100%.
as §2

[3] = test system: cerebral hemorrhage in rats induced by collagenase; experiment: ICH model induced by collagenase: histopathological observation; format: in vivo, Wistar rats
Method: Influence of piperphentonamine hydrochloride on pathological morphology of cerebral hemorrhage in rats was observed. Each group animals were selected randomly, anesthetized deeply by chloral hydrate at predetermined time point, decollated and the brain were taken out rapidly, then, the brain tissue slices with hematoma (about 5 mm) were cut, and put into 10% formaldehyde solution immediately, fixed for 24 h followed by dehydration by graded ethanol, transparentizing by xylene, immersing in paraffin, embedding, slicing (5 μm), HE staining and sealing. The pathological changes area and the pathological change of the adjacent brain tissue were observed by optical microscope.

[4] = test system: cerebral hemorrhage in rats induced by collagenase; experiment: ICH model induced by collagenase: NE in brain tissue by ELISA; format: in vivo, Wistar rats; conditions: ICH rat brain tissue
Source text: (§3) Rats in each group were anesthetized by chloral hydrate, decollated rapidly and the brains were taken out. The brain tissue around the hole was cut and procured, weighed precisely, and made into a 10% tissue homogenate using a glass homogenizer in an ice bath environment with physiological saline as homogenized medium, the supernatant of which was taken to be determined the NE activity using ELISA method.

[5] = test system: cerebral hemorrhage in rats induced by collagenase; experiment: ICH model induced by collagenase: NO in brain tissue by nitrate reductase method; format: in vivo, Wistar rats
Source text: as §3, with “brain take” for “brains”, “content of NO by nitrate reductase” for “NE activity using ELISA”

[6] = test system: cerebral hemorrhage of rats (autologous blood); experiment: cerebral hemorrhage by autologous blood into caudate nucleus: edema (dry-wet weight) and forelimb placement; format: in vivo, SD rats; conditions: local administering 3 h after hemorrhage
Method: Adult male SD rats were divided randomly into normal saline group, cerebral hemorrhage group and piperphentonamine maleate group. A model of cerebral hemorrhage was established by the methods of injecting 50 μl autologous blood into caudate nucleus of rats, wherein, the position of caudate nucleus was determined according to “the rat cerebral in stereotaxic atlas”: the injection position is at the point of front to anterior fontanelle of 0.2 mm, right to the sagittal suture of 3.0 mm, depth of 6.3 mm. The change of cerebral edema was observed by the dry-wet weight method; the behavior was observed by forelimb placement experiment. The cerebral hemorrhage group was only injected without medicine, with the treatment time of at 3 h after hemorrhage. The edema measurement time was in 1, 2, 3, 7, 14 days after hemorrhage, the behavioral observation time phase was in 1, 2, 3, 7, 14, 28 days after hemorrhage, each group of each time phase had 6 rats.

[7] = test system: cultured cerebral neurons; experiment: NMDA induces neuron injury in primary cultured neurons; format: cell-based, rat; conditions: drug 50 mmol/L; NMDA 50 mmol/L, 12 h
[8] = test system: cerebral edema of mice caused by closed cerebral trauma; experiment: closed cerebral trauma model of mice, brain water content; format: in vivo, Kunming mice; conditions: 2 mg/kg iv, brain taken after 24 h
Method: There were 10 mice in each group.
The closed cerebral trauma model of mice being established after fasting for 16 hours, administering intravenously to each group, striping and taking the brain of mouse after 24 hours, weighing the wet weight, and drying at 70° C. for 24 hours, then weighing the dry weight, and calculating brainwater content; the brain water content which is higher than normal values indicates the cerebral edema.
The grouping method, administer method and model preparation were referred to example 2.

human brain disease = experiment: research in treating human brain diseases (no details); format: in vivo
[9] = 2 mg/kg iv 30 min before ICH, 4 h (example 12)
[10] = 2 mg/kg iv 30 min before ICH, 8 h (example 12)
[11] = 2 mg/kg iv 30 min before ICH, 12 h (example 12)
[12] = 2 mg/kg iv 30 min before ICH, 24 h (example 12)
[13] = 4 mg/kg iv 30 min before ICH, 8 h
[14] = 4 mg/kg iv 30 min before ICH, 12 h
[15] = 4 mg/kg iv 30 min before ICH, 24 h

Compound: CN(CCC(=O)/C=C/c1ccc(O)cc1)CCc1ccc2c(c1)OCO2.O=C(O)/C=C\C(=O)O [piperphentonamine maleate]
- neurological score [1, 9]: 3.61 ± 0.7
- neurological score [1, 10]: 3.43 ± 0.82
- neurological score [1, 11]: 2.92 ± 0.95
- neurological score [1, 12]: 2.57 ± 1.28
- neurological score ([1]; 4 mg/kg iv 30 min before ICH, 4 h): 3.25 ± 0.59
- neurological score [1, 13]: 3.08 ± 0.95
- neurological score [1, 14]: 1.88 ± 0.64*^Δ
- neurological score [1, 15]: 1.37 ± 0.46**^ΔΔ
- brain water content [2, 9]: 62.66 ± 0.66^Δ
- brain water content [2, 10]: 63.88 ± 0.55^ΔΔ
- brain water content [2, 11]: 64.86 ± 0.59^ΔΔ
- brain water content [2, 12]: 66.33 ± 0.5^ΔΔ
- brain water content ([2]; 4 mg/kg iv 30 min before ICH, 4 h, in %): 62.19 ± 0.54
- brain water content [2, 13]: 62.53 ± 0.42^Δ**
- brain water content [2, 14]: 63.38 ± 0.15^ΔΔ**
- brain water content [2, 15]: 64.62 ± 0.58^ΔΔ**
- histopathological observation ([3]; large dose (4 mg/kg) pretreatment): obviously reduce tissue edema and inflammatory cell infiltration after cerebral hemorrhage
- histopathological observation ([3]; small dose maleate (2 mg/kg) or nimodipine (0.5 mg/kg) in advance): could ease the pathological changes above-mentioned in different levels
- NE ([4]; high dose group (h), 4 mg/kg): 2.37 ± 0.07^ΔΔ ng/ml
- NE ([4]; low dose group (l), 2 mg/kg): 2.78 ± 0.05^ΔΔ ng/ml
- NO ([5]; 2 mg/kg, ICH rat brain tissue (example 12)): 2.16 ± 0.05^Δ μmol/g pro
- NO ([5]; 4 mg/kg, ICH rat brain tissue): 1.48 ± 0.03^Δ μmol/g pro
- cerebral edema after cerebral hemorrhage [6]: could obviously relieve cerebral edema after cerebral hemorrhage
- neural function defect after cerebral hemorrhage (forelimb placement) [6]: improve the neural function defect after cerebral hemorrhage

Compound: piperphentonamine
- mortality [7]: 30%
- water content of cerebra (%) [8]: 78.31 ± 5.72 %
- pathological morphology of cerebral hemorrhage ([3]; small doses (0.5 mg/kg) in advance): could ease the pathological changes above-mentioned in different levels
- treating human brain and other diseases (human brain disease): obvious effect and clinical significance
